Assay results from patent publication US20080161340A1, “Tetrahydroquinilinones, tetrahydronaphthyridones and derivatives thereof” (priority 2006, published 2008).

What was measured:
Type in all cases: cell-based
hCB2 = biological target: T1, hCB2 (Homo sapiens, UniProt P34972); test: cAMP assay (LANCE TR-FRET) in CHO-K1 cells stably expressing hCB2, agonist/inverse agonist; settings: intracellular cAMP, CHO-K1 hCB2 cells prestimulated with NKH-477; + agonist, − inverse agonist
T1 construct: host or cells: CHO-K1
T1 sequence (P34972 whole entry): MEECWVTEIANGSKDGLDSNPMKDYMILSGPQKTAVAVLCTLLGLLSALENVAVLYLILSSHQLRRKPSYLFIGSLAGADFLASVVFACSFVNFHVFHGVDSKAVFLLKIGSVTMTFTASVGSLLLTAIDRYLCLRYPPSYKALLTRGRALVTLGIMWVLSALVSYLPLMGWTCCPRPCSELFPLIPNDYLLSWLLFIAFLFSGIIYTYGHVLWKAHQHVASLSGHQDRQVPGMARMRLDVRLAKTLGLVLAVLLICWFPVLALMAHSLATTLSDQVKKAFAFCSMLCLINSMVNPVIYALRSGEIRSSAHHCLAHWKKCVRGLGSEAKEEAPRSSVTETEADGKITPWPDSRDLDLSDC
Protocol: (§1) The ability of compounds to act as agonists or inverse agonists at human CB2 and CB1 receptors (hCB2, hCB1, respectively) was determined by measuring changes in intracellular cAMP levels. Chinese Hamster Ovary (CHO-K1) cell lines stably expressing hCB2 (Genebank: X74328) or hCB1 (Genebank: X54937) were purchased from Euroscreen (Gosselies, Belgium).
(§2) Cell lines were grown in suspension in EX-CELL 302 CHO Serum-free medium (Sigma, cat #14324C) supplemented with 1% Fetal Bovine Serum, glutamine and non-essential amino-acids under 0.4 mg/mL G418 selection.
(§3) Receptor mediated responses were determined by measuring changes in intracellular cAMP using LANCE cAMP detection kit (cat #AD0264, PerkinElmer, Wellesley, Mass.) based on time-resolved fluorescence resonance energy transfer (TR-FRET). Changes in cAMP were determined in cells pre-incubated with IBMX (isobutyl methylxanthine) and prestimulated with NKH-477 (a water soluble forskolin derivative, cat #1603, Tocris, Ellisville, Mo.) to increase basal cAMP levels as detailed below.
(§4) On the day of the experiment, cells were spun at low speed for 5 min at room temperature. The supernatant was removed and cells were resuspended in stimulation buffer (Hanks Buffered Salt Solution/5 mM HEPES, containing 0.5 mM IBMX (cat #17018, Sigma) and 0.02% BSA (PerkinElmer, cat #CR84-100)). Cell clumps were removed by filtering through cell strainer 40 μm (BD Falcon, Discovery Labware, Bedford, Mass.) and diluted to 2×10^5 cells/mL. Antibody supplied with the LANCE cAMP immunoassay kit was then added according to the manufacturer's instructions. An aliquot of cells was taken for un-induced controls. To the remaining cells was added NKH-477 (a water soluble forskolin derivative, Tocris cat #1603) to a final concentration of 2-8 μM. Cells were then incubated for 30 min at room temperature prior to adding to Proxiplates containing test compounds (final DMSO concentration was less than 0.5%) with a Multidrop bulk dispenser, followed by a sixty minute incubation at room temperature. The response was stopped by addition of the detection mix supplied with the LANCE kit.
(§5) The reagents were allowed to equilibrate for three hours prior to reading on an Envision multi-mode detector (PerkinElmer). TR-FRET was measured using a 330-380 nm excitation filter, a 665 nm emission filter, dichroic mirror 380 nm and Z=1 mm.
(§6) Cyclic AMP concentrations in each well were back-calculated from a cAMP standard curve run concurrently during each assay. Each plate contained 16 wells of forskolin stimulated cells and 16 wells of forskolin plus CP55,940-treated. CP55,940-treated cells were treated with CP55,940 (Tocris cat. # 0949) at 1 μm and the maximal response was used as the full range (100%) standard. WIN55,212 (Tocris cat. # 1038) was used as an internal standard. Concentrations of cAMP were expressed as a percent of the difference of these two groups of wells. Concentration-response data including ECso (the concentration of compound producing 50% of the maximal response) and intrinsic activity (the percent maximal activation compared to full activation by CP55,940) were determined using a four-parameter non-linear regression algorithm (Xlfit equation 251, IDBS).

rCB2 = biological target: T2, rCB2 (Rattus norvegicus, UniProt Q9QZN9); test: cAMP assay, rCB2 in Table 7, agonist/inverse agonist; settings: intracellular cAMP; + agonist, − inverse agonist
T2 sequence (Q9QZN9 1-360): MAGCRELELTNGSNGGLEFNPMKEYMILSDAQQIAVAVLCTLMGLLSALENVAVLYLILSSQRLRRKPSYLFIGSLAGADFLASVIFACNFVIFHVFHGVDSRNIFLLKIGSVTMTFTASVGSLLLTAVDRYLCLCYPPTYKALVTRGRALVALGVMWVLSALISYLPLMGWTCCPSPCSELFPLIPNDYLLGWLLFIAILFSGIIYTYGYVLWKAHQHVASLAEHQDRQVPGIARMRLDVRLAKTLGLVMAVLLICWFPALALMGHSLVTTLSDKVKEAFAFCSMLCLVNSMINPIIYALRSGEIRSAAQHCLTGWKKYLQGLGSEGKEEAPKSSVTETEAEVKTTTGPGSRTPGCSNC
Protocol: as §3, §4, §5, §6

hCB1 = biological target: T3, hCB1 (Homo sapiens, UniProt P21554); test: cAMP assay (LANCE TR-FRET) in CHO-K1 cells stably expressing hCB1, agonist/inverse agonist; settings: intracellular cAMP, CHO-K1 hCB1 cells prestimulated with NKH-477, + agonist, − inverse agonist; for EC50: read-out: hCB1 EC50 class
T3 construct: host or cells: CHO-K1
T3 sequence (P21554 whole entry): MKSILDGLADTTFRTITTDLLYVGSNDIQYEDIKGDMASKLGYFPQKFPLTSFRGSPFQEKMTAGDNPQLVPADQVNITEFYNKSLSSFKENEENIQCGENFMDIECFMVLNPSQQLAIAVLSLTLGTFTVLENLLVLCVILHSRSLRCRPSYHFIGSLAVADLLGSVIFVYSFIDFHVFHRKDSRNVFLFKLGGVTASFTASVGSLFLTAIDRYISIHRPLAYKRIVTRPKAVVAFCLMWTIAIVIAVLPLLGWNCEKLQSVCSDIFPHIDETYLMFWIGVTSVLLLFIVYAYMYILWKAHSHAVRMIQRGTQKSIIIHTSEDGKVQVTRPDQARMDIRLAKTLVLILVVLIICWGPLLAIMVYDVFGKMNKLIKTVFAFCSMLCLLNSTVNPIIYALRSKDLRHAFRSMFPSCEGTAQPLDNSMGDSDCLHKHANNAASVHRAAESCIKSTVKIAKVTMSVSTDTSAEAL
Protocol: as §1, §2, §3, §4, §5, §6

SMILES	hCB2 EC50 class (hCB2)	rCB2 EC50 class (rCB2)	EC50 (hCB1)	hCB1 EC50 class (hCB1)
O=c1c(-c2ccc(C(F)(F)F)cc2)cc2c(n1CC1CCC1)CCNC2 [Compound 39, 3-(4-(trifluoromethyl)phenyl)-1-(cyclobutylmethyl)-5,6,7,8-tetrahydro-1,6-naphthyridin-2(1H)-one]	+C	+C	> 10 µM	
O=c1c(Cc2ccccc2)cc2c(n1CC1CCC1)CCCC2 [Compound 34, 3-benzyl-1-(cyclobutylmethyl)-5,6,7,8-tetrahydroquinolin-2(1H)-one]	+B	+B	> 10 µM	
CS(=O)(=O)N1CCc2c(cc(-c3cccc(Cl)c3)c(=O)n2CC2CC2)C1 [Compound 48, 3-(3-chlorophenyl)-1-(cyclopropylmethyl)-6-(methylsulfonyl)-5,6,7,8-tetrahydro-1,6-naphthyridin-2(1H)-one]	+A	+A	> 10 µM	
O=c1c(-c2cc3c(n(CC4CCC4)c2=O)CCCC3)cc2c(n1CC1CCC1)CCCC2 [Compound 5, 1,1′-bis(cyclobutylmethyl)-5,5′,6,6′,7,7′,8,8′-octahydro-3,3′-biquinoline-2,2′(1H,1′H)-dione]	+A	+A		+C
COc1cccc(-c2cc3c(n(CC4CCC4)c2=O)CCCC3)c1 [Compound 16, 1-(cyclobutylmethyl)-3-(3-methoxyphenyl)-5,6,7,8-tetrahydroquinolin-2(1H)-one]	+B	+B	> 10 µM	
O=c1c(-c2ccccc2F)cc2c(n1CC1CCC1)CCCC2 [Compound 15, 1-(cyclobutylmethyl)-3-(2-fluorophenyl)-5,6,7,8-tetrahydroquinolin-2(1H)-one]	+B	+B	> 10 µM	
